Assay results from US20240381872A1, “SUBSTITUTED 2,3-DIHYDRO[1,3]THIAZOLO[4,5-B]PYRIDINES, SALTS THEREOF AND THEIR USE AS HERBICIDALLY ACTIVE SUBSTANCES” (BAYER AKTIENGESELLSCHAFT, priority 2021, published 2024).

Key:
Format in all cases: in vivo
[1] = tested on: Triticum aestivum (TRZAS); assay: Post-emergence effects on crop plants, section F (Table F2); settings: for post-emergence activity against TRZAS in %: crop plant damage
How it was run: (§1)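 Sandy loam, greenhouse, controlled conditions. Spray at single-leaf stage (2–3 wk post-sowing); WP/EC aqueous suspension/emulsion + 0.5% additive, 600 l water/ha; rate ≤320 g/ha. Visual scoring ca. 3 wk post-spray vs untreated, % effect.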

Setaria viridis (SETVI) = assay: Herbicidal pre-emergence action, section C (Table C8); settings: visual grading after ca. 3 weeks
How it was run: (§2)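 Pre-emergence, sandy loam. WP/EC formulations applied to covering soil surface, aqueous, + 0.5% additive, 600 l water/ha. Greenhouse, optimum growth. Visual % damage vs untreated, ca. 3 wk.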

[2] = tested on: Triticum aestivum (TRZAS); assay: Pre-emergence effects on crop plants, section D (Table D2); settings: visual grading after ca. 3 weeks
How it was run: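 Pre-emergence soil-surface spray, 320 g/ha or below, 600 l water/ha + 0.5% additive; WP/EC formulations; sandy loam; greenhouse; visual % damage vs untreated at ~3 wk.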

[3] = tested on: Digitaria sanguinalis (DIGSA); assay: Herbicidal post-emergence action, section B (Table B12); settings: visual rating about 3 weeks after treatment vs untreated controls; for pest or weed control at 1280 g/ha: Digitaria sanguinalis, post-emergence, 504 h, read-out: post-emergence activity against DIGSA in %
How it was run: (§3)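 Scores are visual % activity relative to untreated plants (0% = like control, 100% = dead), taken about 3 weeks after spraying. Compounds, as WP or EC in water with 0.5% additive at 600 L/ha, went onto one-leaf-stage weeds grown from seed in sandy loam under greenhouse conditions.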

Stellaria media (STEME) = assay: Herbicidal pre-emergence action, section A (Table A9); settings: for pest or weed control at 320 g/ha: Stellaria media, 504 h, read-out: pre-emergence activity against STEME in %
How it was run: (§4)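 Visual scoring at approximately 3 weeks, relative to untreated pots, gave percent effect after compounds in WP or EC form were sprayed onto covering soil of sown seeds (sandy loam) in water with 0.5% additive at 600 l/ha, then kept in greenhouse.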

Poa annua (POAAN) = assay: Herbicidal post-emergence action, section B (Table B7); settings: visual rating about 3 weeks after treatment vs untreated controls
How it was run: as §3

[4] = tested on: Alopecurus myosuroides (ALOMY); assay: Herbicidal pre-emergence action, section C (Table C2); settings: visual grading after ca. 3 weeks vs untreated controls
Description: (§5) Seeds of mono- and dicotyledonous weed plants and crop plants were sown, in plastic or organic planting pots, in sandy loam and covered with soil. The compounds according to the invention, formulated in the form of wettable powders (WP) or as emulsifiable concentrates (EC), were applied to the surface of the covering soil as aqueous suspension or emulsion, with the addition of 0.5% of an additive, at an application rate of 600 l of water/ha (converted). Following treatment, the pots were placed in a greenhouse and kept under optimum growth conditions for the test plants. The visual grading of the damage to the test plants was carried out after ca. 3 weeks in comparison to untreated controls (herbicidal effect in percent (%): 100% effect=plants have died off, 0% effect=as control plants).

Veronica persica (VERPE) = assay: Herbicidal pre-emergence action, section C (Table C10); settings: visual grading after ca. 3 weeks; for pest or weed control at 320 g/ha: Veronica persica, pre-emergence, 504 h, read-out: pre-emergence activity against VERPE in %
Description: as §5

[5] = tested on: Amaranthus retroflexus (AMARE); assay: Herbicidal pre-emergence action, section C (Table C11); settings: visual grading after ca. 3 weeks
How it was run: as §2

[6] = tested on: Alopecurus myosuroides (ALOMY); assay: Herbicidal pre-emergence action, section A (Table A2); settings: visual grading after ca. 3 weeks vs untreated controls
How it was run: as §4

Oryza sativa (ORYZA) = assay: Post-emergence effects on crop plants, section F (Table F3); settings: crop plant damage, application rate 320 g/ha
How it was run: as §1

[7] = Alopecurus myosuroides, pre-emergence, 504 h, application rate 320 g/ha, read-out: pre-emergence activity against ALOMY in %

Cc1cc2c(nc1-c1cccc(C)c1F)NCS2 [Example I-113]
post-emergence activity against TRZAS in % ([1]; application rate 320 g/ha): 20% | pre-emergence activity against SETVI in % (Setaria viridis (SETVI); application rate 320 g/ha): 100% | pre-emergence activity against TRZAS in % (crop plant damage) ([2]; application rate 320 g/ha): 10% | post-emergence activity against DIGSA in % ([3]; application rate 320 g/ha): 90% | pre-emergence activity against STEME in % (Stellaria media (STEME); application rate 1280 g/ha): 90% | post-emergence activity against POAAN in % (Poa annua (POAAN); application rate 320 g/ha): 90%

CC1(C(=O)N2CSc3cc(Br)c(-c4ccccc4Cl)nc32)CC(Cl)=NO1 (stereo not drawn) [Example I-141, [6-bromo-5-(2-chlorophenyl)[1,3]thiazolo[4,5-b]pyridin-3(2H)-yl](3-chloro-5-methyl-4,5-dihydro-1,2-oxazol-5-yl)methanone]
percent crop plant damage (wheat, post-emergence) at 320 g/ha ([1]; Triticum aestivum, 504 h, application rate 320 g/ha, read-out: post-emergence activity against TRZAS in %): 0% | pest or weed control at 320 g/ha [4, 7]: 80% | pest or weed control at 320 g/ha (Setaria viridis (SETVI); Setaria viridis, pre-emergence, 504 h, application rate 320 g/ha, read-out: pre-emergence activity against SETVI in %): 100% | pest or weed control at 320 g/ha (Veronica persica (VERPE); application rate 320 g/ha): 90% | pest or weed control at 80 g/ha ([5]; Amaranthus retroflexus, pre-emergence, 504 h, application rate 80 g/ha, read-out: pre-emergence activity against AMARE in %): 100% | pre-emergence activity against TRZAS in % (crop plant damage) ([2]; application rate 80 g/ha): 0% | pest or weed control at 1280 g/ha ([3]; application rate 1280 g/ha): 90% | pest or weed control at 320 g/ha (Stellaria media (STEME); application rate 320 g/ha): 90% | pest or weed control at 1280 g/ha ([6]; Alopecurus myosuroides, pre-emergence, 504 h, application rate 1280 g/ha, read-out: pre-emergence activity against ALOMY in %): 90% | pest or weed control at 1280 g/ha (Poa annua (POAAN); Poa annua, post-emergence, 504 h, application rate 1280 g/ha, read-out: post-emergence activity against POAAN in %): 90%

CC1(C(=O)N2CSc3cc(Br)c(-c4ccccc4)nc32)CC(Cl)=NO1 (stereo not drawn) [Example I-139]
post-emergence activity against TRZAS in % ([1]; application rate 80 g/ha): 0% | pre-emergence activity against ALOMY in % ([4]; application rate 320 g/ha): 80% | pre-emergence activity against SETVI in % (Setaria viridis (SETVI); application rate 320 g/ha): 100% | pre-emergence activity against VERPE in % (Veronica persica (VERPE); application rate 320 g/ha): 80% | pre-emergence activity against AMARE in % ([5]; application rate 80 g/ha): 90% | post-emergence activity against DIGSA in % ([3]; application rate 1280 g/ha): 90% | pre-emergence activity against STEME in % (Stellaria media (STEME); application rate 320 g/ha): 90% | pre-emergence activity against ALOMY in % ([6]; application rate 1280 g/ha): 90% | post-emergence activity against POAAN in % (Poa annua (POAAN); application rate 320 g/ha): 90%

COCC1(C(=O)N2CSc3cc(C)c(-c4ccccc4F)nc32)CC(Cl)=NO1 (stereo not drawn) [Example I-128]
pre-emergence activity against ALOMY in % ([4]; application rate 80 g/ha): 90% | pre-emergence activity against SETVI in % (Setaria viridis (SETVI); application rate 80 g/ha): 100% | pre-emergence activity against VERPE in % (Veronica persica (VERPE); application rate 80 g/ha): 80% | pre-emergence activity against AMARE in % ([5]; application rate 320 g/ha): 90% | post-emergence activity against DIGSA in % ([3]; application rate 1280 g/ha): 90% | pre-emergence activity against STEME in % (Stellaria media (STEME); application rate 320 g/ha): 90% | pre-emergence activity against ALOMY in % ([6]; application rate 320 g/ha): 100% | post-emergence activity against POAAN in % (Poa annua (POAAN); application rate 1280 g/ha): 90%

BN1CSc2cc(Br)c(-c3ccccc3C)nc21 [Example I-011]
post-emergence activity against TRZAS in % ([1]; application rate 80 g/ha): 0% | pre-emergence activity against ALOMY in % ([4]; application rate 320 g/ha): 90% | pre-emergence activity against SETVI in % (Setaria viridis (SETVI); application rate 80 g/ha): 100% | pre-emergence activity against STEME in % (Stellaria media (STEME); application rate 1280 g/ha): 100% | post-emergence activity against ORYZA in % (Oryza sativa (ORYZA)): 0% | post-emergence activity against POAAN in % (Poa annua (POAAN); application rate 1280 g/ha): 90%

CCOCCS(=O)(=O)N1C[S+]([O-])c2cc(C)c(-c3ccccc3F)nc21 (stereo not drawn) [Example I-127]
percent crop plant damage (wheat, post-emergence) at 80 g/ha ([1]; Triticum aestivum, 504 h, application rate 80 g/ha, read-out: post-emergence activity against TRZAS in %): 0% | pest or weed control at 80 g/ha (Setaria viridis (SETVI); Setaria viridis, pre-emergence, 504 h, application rate 80 g/ha, read-out: pre-emergence activity against SETVI in %): 100% | pest or weed control at 320 g/ha (Veronica persica (VERPE); application rate 320 g/ha): 90% | pest or weed control at 320 g/ha ([5]; Amaranthus retroflexus, pre-emergence, 504 h, application rate 320 g/ha, read-out: pre-emergence activity against AMARE in %): 90% | pre-emergence activity against TRZAS in % (crop plant damage) ([2]; application rate 80 g/ha): 20% | pest or weed control at 1280 g/ha ([3]; application rate 1280 g/ha): 90% | pest or weed control at 320 g/ha (Stellaria media (STEME); application rate 320 g/ha): 90% | pest or weed control at 320 g/ha [6, 7]: 100% | pest or weed control at 320 g/ha (Poa annua (POAAN); Poa annua, post-emergence, 504 h, application rate 320 g/ha, read-out: post-emergence activity against POAAN in %): 90%
